Consider two compounds from ChEMBL document CHEMBL3046026, “Evaluation of the curative and protectant activity of fungicides and fungicide-adjuvant mixtures on Phomopsis cane and leaf spot of grape: A controlled environment study” (2007).

Active and inactive are the calls of the source. The rule behind the calls is not given here.

Experiment [1] relates to Diaporthe ampelina. As to the kind of experiment: Antifungal activity against Diaporthe ampelina infected grape plant assessed as re-isolation of mycelium from infected vines at 0.25 […] a.i./ha treated for weeks in presence of regulaid followed by inoculation on medium measured after 72 hr (reference value: 62.5%). The experiment is classed as functional.
For experiment [2], the system named is Diaporthe ampelina. As to the kind of experiment: Antifungal activity against Diaporthe ampelina infected grape plant assessed as disease severity at internodes at 0.25 […] a.i./ha incubated for 48 hr prior to treatment with 24 hr wetness period followed by 24 hr of drying period measured after 4 weeks in presence of regulaid (reference value: 12.2%). Type of experiment: functional.

Experiment [3] has as its system Diaporthe ampelina. In words: Antifungal activity against Diaporthe ampelina infected grape plant assessed as decrease in lesions on leaf at 0.25 […] a.i./ha treated 3 to 6 hr prior to inoculation followed by 24 hr wetness period measured after 4 weeks relative to control. Type of experiment: functional, organism-based.
Experiment [4] deals with Diaporthe ampelina. As to the kind of experiment: Antifungal activity against Diaporthe ampelina infected grape plant assessed as decrease in lesions on leaf at 0.25 […] a.i./ha incubated for 20 hr prior to treatment with 16 hr wetness period followed by 4 hr of drying period measured after 4 weeks relative to control in presence of regulaid. The experiment is classed as functional, organism-based.

The test system of experiment [5] is Diaporthe ampelina. In words: Antifungal activity against Diaporthe ampelina infected grape plant assessed as disease severity at internodes at 0.25 […] a.i./ha incubated for 20 hr prior to treatment with 16 hr wetness period followed by 4 hr of drying period measured after 4 weeks in presence of regulaid (reference value: 7.3%). Type of experiment: functional.

Experiment [6] has as its system Diaporthe ampelina. As to the kind of experiment: Antifungal activity against Diaporthe ampelina infected grape plant assessed as decrease in lesions on leaf at 0.25 […] a.i./ha incubated for 48 hr prior to treatment with 24 hr wetness period followed by 24 hr of drying period measured after 4 weeks relative to control in presence of regulaid. Type of experiment: functional, organism-based.

For experiment [7], the system named is Diaporthe ampelina. As to the kind of experiment: Antifungal activity against Diaporthe ampelina infected grape plant assessed as disease severity at internodes at 0.25 […] a.i./ha treated 3 to 6 hr prior to inoculation followed by 24 hr wetness period measured after 4 weeks (reference value: 2.6%). Type of experiment: functional.
Experiment [8] relates to Diaporthe ampelina. In words: Antifungal activity against Diaporthe ampelina infected grape plant assessed as decrease in lesions on leaf at 0.25 […] a.i./ha incubated for 24 hr prior to treatment with 20 hr wetness period followed by 4 hr of drying period measured after 4 weeks relative to control in presence of regulaid. The experiment is classed as functional, organism-based.

Experiment [9] deals with Diaporthe ampelina. As to the kind of experiment: Antifungal activity against Diaporthe ampelina infected grape plant assessed as disease severity at internodes at 1.7 m3/ha incubated for 24 hr prior to treatment with 20 hr wetness period followed by 4 hr of drying period measured after 4 weeks in presence of regulaid (reference value: 3.2%). Type of experiment: functional.

Experiment [10] concerns Diaporthe ampelina. In words: Antifungal activity against Diaporthe ampelina infected grape plant assessed as decrease in lesions on leaf at 0.25 […] a.i./ha treated 3 to 6 hr prior to inoculation followed by 24 hr wetness period measured after 4 weeks relative to control in presence of regulaid. Type of experiment: functional, organism-based.
Experiment [11] deals with Diaporthe ampelina. In words: Antifungal activity against Diaporthe ampelina infected grape plant assessed as disease severity at internodes at 0.25 […] a.i./ha incubated for 24 hr prior to treatment with 20 hr wetness period followed by 4 hr of drying period measured after 4 weeks in presence of regulaid (reference value: 4.7%). Type of experiment: functional.
Experiment [12] concerns Diaporthe ampelina. In words: Antifungal activity against Diaporthe ampelina infected grape plant assessed as disease severity at internodes at 0.25 […] a.i./ha treated 3 to 6 hr prior to inoculation followed by 24 hr wetness period measured after 4 weeks in presence of regulaid (reference value: 2.9%). The experiment is classed as functional.
In experiment [13] the test system is Diaporthe ampelina. As to the kind of experiment: Antifungal activity against Diaporthe ampelina infected grape plant assessed as decrease in lesions on leaf at 1.7 m3/ha incubated for 24 hr prior to treatment with 20 hr wetness period followed by 4 hr of drying period measured after 4 weeks relative to control in presence of regulaid. The experiment is classed as functional, organism-based.

The test system of experiment [14] is Diaporthe ampelina. As to the kind of experiment: Antifungal activity against Diaporthe ampelina infected grape plant assessed as decrease in lesions on leaf at 0.12 kg a.i./ha incubated for 20 hr prior to treatment with 16 hr wetness period and 4 hr drying time measured after 4 weeks relative to control in presence of regulaid. The experiment is classed as functional, organism-based.

Experiment [15] relates to Diaporthe ampelina. In words: Antifungal activity against Diaporthe ampelina infected grape plant assessed as disease severity at internodes at 0.12 kg a.i./ha treated 3 to 6 hr prior to inoculation followed by 24 hr wetness period measured after 4 weeks (reference value: 2.6%). Type of experiment: functional.
Experiment [16] deals with Diaporthe ampelina. As to the kind of experiment: Antifungal activity against Diaporthe ampelina infected grape plant assessed as decrease in lesions on leaf at 0.12 kg a.i./ha incubated for 24 hr prior to treatment with 20 hr wetness period followed by 4 hr drying period measured after 4 weeks relative to control in presence of regulaid. The experiment is classed as functional, organism-based.

Experiment [17] has as its system Diaporthe ampelina. In words: Antifungal activity against Diaporthe ampelina infected grape plant assessed as disease severity at internodes at 0.5 kg/ha incubated for 24 hr prior to treatment with 20 hr wetness period followed by 4 hr drying period measured after 4 weeks in presence of regulaid (reference value: 3.2%). Type of experiment: functional.
In experiment [18] the test system is Diaporthe ampelina. In words: Antifungal activity against Diaporthe ampelina infected grape plant assessed as disease severity at internodes at 0.12 kg a.i./ha treated 3 to 6 hr prior to inoculation followed by 24 hr wetness period measured after 4 weeks in presence of regulaid (reference value: 2.9%). The experiment is classed as functional.
For experiment [19], the system named is Diaporthe ampelina. In words: Antifungal activity against Diaporthe ampelina infected grape plant assessed as disease severity at internodes at 0.12 kg a.i./ha incubated for 24 hr prior to treatment with 20 hr wetness period followed by 4 hr drying period measured after 4 weeks in presence of regulaid (reference value: 4.7%). The experiment is classed as functional.

Experiment [20] relates to Diaporthe ampelina. As to the kind of experiment: Antifungal activity against Diaporthe ampelina infected grape plant assessed as disease severity at internodes at 0.12 kg a.i./ha incubated for 48 hr prior to treatment with 24 hr wetness period followed by 24 hr of drying period measured after 4 weeks in presence of regulaid (reference value: 12.2%). The experiment is classed as functional.

Experiment [21] concerns Diaporthe ampelina. As to the kind of experiment: Antifungal activity against Diaporthe ampelina infected grape plant assessed as decrease in lesions on leaf at 0.12 kg a.i./ha incubated for 48 hr prior to treatment with 24 hr wetness period followed by 24 hr of drying period measured after 4 weeks relative to control in presence of regulaid. Type of experiment: functional, organism-based.

Experiment [22] has as its system Diaporthe ampelina. As to the kind of experiment: Antifungal activity against Diaporthe ampelina infected grape plant assessed as decrease in lesions on leaf at 0.12 kg a.i./ha treated 3 to 6 hr prior to inoculation followed by 24 hr wetness period measured after 4 weeks relative to control. The experiment is classed as functional, organism-based.
Experiment [23] concerns Diaporthe ampelina. As to the kind of experiment: Antifungal activity against Diaporthe ampelina infected grape plant assessed as decrease in lesions on leaf at 0.5 kg/ha incubated for 24 hr prior to treatment with 20 hr wetness period followed by 4 hr drying period measured after 4 weeks relative to control in presence of regulaid. The experiment is classed as functional, organism-based.

For experiment [24], the system named is Diaporthe ampelina. As to the kind of experiment: Antifungal activity against Diaporthe ampelina infected grape plant assessed as disease severity at internodes at 0.12 kg a.i./ha incubated for 20 hr prior to treatment with 16 hr wetness period and 4 hr drying time measured after 4 weeks in presence of regulaid (reference value: 7.3%). Type of experiment: functional.

Experiment [25] concerns Diaporthe ampelina. In words: Antifungal activity against Diaporthe ampelina infected grape plant assessed as re-isolation of mycelium from infected vines at 0.12 kg a.i./ha treated for weeks in presence of regulaid followed by inoculation on medium measured after 72 hr (reference value: 62.5%). The experiment is classed as functional.
The subject of experiment [26] is Diaporthe ampelina. As to the kind of experiment: Antifungal activity against Diaporthe ampelina infected grape plant assessed as decrease in lesions on leaf at 0.12 kg a.i./ha treated 3 to 6 hr prior to inoculation followed by 24 hr wetness period measured after 4 weeks relative to control in presence of regulaid. The experiment is classed as functional, organism-based.

Consider `CO/C=C(/C(=O)OC)c1ccccc1Oc1cc(Oc2ccccc2C#N)ncn1` [AZOXYSTROBIN], for which the Activity with Diaporthe ampelina [1] is reported as 8.4%; in the experiment with Diaporthe ampelina [2], 3.7%; in the experiment on Diaporthe ampelina [5] it was 5.3%; in the experiment with Diaporthe ampelina [7] it was 0.3%; in the experiment with Diaporthe ampelina [9] it was 3.2%; with Diaporthe ampelina [11] it was 4.9%. Further, the Activity in the experiment with Diaporthe ampelina [12] stood at 0.1%. Moreover, the result in the experiment with Diaporthe ampelina [3] and in the experiment with Diaporthe ampelina [10] was Active. Besides, the outcome with Diaporthe ampelina [4], in the experiment with Diaporthe ampelina [6], in the experiment with Diaporthe ampelina [8] and with Diaporthe ampelina [13] was inactive.

For `CCCCC(C#N)(Cn1cncn1)c1ccc(Cl)cc1` (stereo unspecified) [MYCLOBUTANIL], the result in the experiment on Diaporthe ampelina [14], with Diaporthe ampelina [16], in the experiment on Diaporthe ampelina [21], with Diaporthe ampelina [22], in the experiment with Diaporthe ampelina [23] and in the experiment on Diaporthe ampelina [26] was inactive. For the same compound, the Activity in the experiment with Diaporthe ampelina [15] stood at 0.6%; in the experiment on Diaporthe ampelina [17] it was 3.1%; in the experiment on Diaporthe ampelina [18], 0.1%; in the experiment on Diaporthe ampelina [19] it was 3.5%; in the experiment on Diaporthe ampelina [20], 6.7%; in the experiment with Diaporthe ampelina [24], 5.2%. Moreover, the Activity with Diaporthe ampelina [25] turned out to be 68.7%.
